The test system of assay [1] is Bacillus subtilis. Put plainly: Antibacterial activity against Bacillus subtilis MTCC 121 after 24 hrs by well diffusion method. Type of assay: functional. To be noted: MTCC 121, 24 h.
Assay [2] relates to Staphylococcus aureus. The assay is described as follows: Antibacterial activity against Staphylococcus aureus MTCC 96 after 24 hrs by well diffusion method. In kind it is functional. To be noted: MTCC 96, 24 h. For orientation: In agar diffusion tests the substance spreads into inoculated agar from a disc or well.
In assay [3] the test system is Staphylococcus aureus. The assay is described as follows: Antibacterial activity against Staphylococcus aureus MLS16 MTCC 2940 after 24 hrs by well diffusion method. In kind it is functional. The conditions noted are these: MLS16 MTCC 2940, 24 h.
The subject of assay [4] is Micrococcus luteus. Put plainly: Antibacterial activity against Micrococcus luteus MTCC 2470 after 24 hrs by well diffusion method. Type of assay: functional. To be noted: MTCC 2470, 24 h.
The next assay deals with Raoultella planticola. Put plainly: Antibacterial activity against Klebsiella planticola MTCC 530 after 24 hrs by well diffusion method. To be noted: MTCC 530, 24 h. In kind it is functional.
In a further assay the test system is Escherichia coli. Put plainly: Antibacterial activity against Escherichia coli MTCC 739 after 24 hrs by well diffusion method. Type of assay: functional. The conditions noted are these: MTCC 739, 24 h.
Another assay deals with Pseudomonas aeruginosa. Put plainly: Antibacterial activity against Pseudomonas aeruginosa MTCC 2453 after 24 hrs by well diffusion method. In kind it is functional. The conditions noted are these: MTCC 2453, 24 h.
Assay [5] has as its system Staphylococcus aureus. The assay is described as follows: Bactericidal activity against Staphylococcus aureus MTCC 96 after 24 hrs by serial dilution method. In kind it is functional. To be noted: MTCC 96, 24 h.
The subject of assay [6] is Bacillus subtilis. Put plainly: Bactericidal activity against Bacillus subtilis MTCC 121 after 24 hrs by serial dilution method. In kind it is functional. To be noted: MTCC 121, 24 h.
For assay [7], the system named is Staphylococcus aureus. The assay is described as follows: Bactericidal activity against Staphylococcus aureus MLS16 MTCC 2940 after 24 hrs by serial dilution method. To be noted: MLS16 MTCC 2940, 24 h. In kind it is functional.
Assay [8] has as its system Micrococcus luteus. Put plainly: Bactericidal activity against Micrococcus luteus MTCC 2470 after 24 hrs by serial dilution method. In kind it is functional. To be noted: MTCC 2470, 24 h.
Assay [9] deals with Staphylococcus aureus. Put plainly: Antibiofilm activity against Staphylococcus aureus MLS16 MTCC 2940 after 24 hrs by crystal violet staining based assay. Type of assay: functional. To be noted: MLS16 MTCC 2940, 24 h.
In assay [10] the test system is Micrococcus luteus. The assay is described as follows: Induction of ROS generation in Micrococcus luteus MTCC 2470 mature biofilms at up to 4 ug/ml after 24 hrs by DCFH-DA staining based fluorometric assay. In kind it is functional.
Assay [11] relates to Staphylococcus aureus. Put plainly: Ratio of MBC to MIC for Staphylococcus aureus MTCC 96. In kind it is functional.
The subject of assay [12] is Micrococcus luteus. Put plainly: Ratio of MBC to MIC for Micrococcus luteus MTCC 2470. In kind it is functional.
Assay [13] relates to Staphylococcus aureus. The assay is described as follows: Antibiofilm activity against Staphylococcus aureus MTCC 96 after 24 hrs by crystal violet staining based assay. In kind it is functional. The conditions noted are these: MTCC 96, 24 h.
The subject of assay [14] is Bacillus subtilis. Put plainly: Antibiofilm activity against Bacillus subtilis MTCC 121 after 24 hrs by crystal violet staining based assay. In kind it is functional. To be noted: MTCC 121, 24 h.
The test system of assay [15] is Micrococcus luteus. Put plainly: Antibiofilm activity against Micrococcus luteus MTCC 2470 after 24 hrs by crystal violet staining based assay. Type of assay: functional. The conditions noted are these: MTCC 2470, 24 h.
In assay [16] the test system is Micrococcus luteus. The assay is described as follows: Induction of ROS generation in Micrococcus luteus MTCC 2470 mature biofilms at 0.5 to 2 ug/ml after 24 hrs by DCFH-DA staining based fluorometric assay. In kind it is functional.
Assay [17] relates to Micrococcus luteus. Put plainly: Induction of intracellular ROS accumulation in Micrococcus luteus MTCC 2470 sessile biofilm cells at 0.5 to 4 ug/ml after 24 hrs by DCFH-DA staining-based assay. Type of assay: functional, cell-based.
The test system of assay [18] is Micrococcus luteus. Put plainly: Induction of membrane permeability in Micrococcus luteus MTCC 2470 assessed as protein leakage at 1 to 2 times antibacterial MIC up to 12 hrs by Bradford protein assay. Type of assay: functional.
The test system of assay [19] is Micrococcus luteus. The assay is described as follows: Induction of membrane permeability in Micrococcus luteus MTCC 2470 assessed as protein leakage at 1 to 2 times antibacterial MIC after 12 to 24 hrs by Bradford protein assay. In kind it is functional.
Assay [20] has as its system Bacillus subtilis. Put plainly: Ratio of MBC to MIC for Bacillus subtilis MTCC 121. In kind it is functional.
Assay [21] concerns Staphylococcus aureus. The assay is described as follows: Ratio of MBC to MIC for Staphylococcus aureus MLS16 MTCC 2940. Type of assay: functional.

Converted amounts (≈) assume the structure as drawn. The source made the active and inactive calls. No cut-off for these calls is given here. A value given as a limit tells only on which side of the number the result lay.

A word on the MIC: it is the lowest concentration found to suppress growth. A word on the MBC: it is the lowest tested concentration that kills the bacteria rather than only halting them. A higher MBC goes with weaker bactericidal potency. As usually defined, the IC50 is the concentration needed to halve the response being measured. With `O=C(O)c1cn(C2CC2)c2cc(N3CCNCC3)c(F)cc2c1=O` [CIPROFLOXACIN], the minimal inhibitory concentration (MIC) against Bacillus subtilis [1], against Staphylococcus aureus [2], in the assay on Staphylococcus aureus [3], against Micrococcus luteus [4], in the assay with Raoultella planticola and against Escherichia coli was 0.9 µg/mL (≈ 2.72 µM) throughout. Also, the minimal inhibitory concentration (MIC) in the assay on Pseudomonas aeruginosa amounted to 0.9 µg/mL (≈ 2.72 µM). The MBC against Staphylococcus aureus [5] amounted to 1.9 µg/mL (≈ 5.73 µM); in the assay with Bacillus subtilis [6], 0.9 µg/mL (≈ 2.72 µM); in the assay with Staphylococcus aureus [7], 0.9 µg/mL (≈ 2.72 µM); against Micrococcus luteus [8] it was 1.9 µg/mL (≈ 5.73 µM). In the assay on Staphylococcus aureus [9], this compound registered a concentration for half-maximal inhibition (IC50) of 0.4 µg/mL (≈ 1.21 µM). Further, the result in the assay on Micrococcus luteus [10] was Active.

With `Cc1ccc(-c2nn(-c3ccccc3)cc2C2c3c(n(C)c(=O)n(C)c3=O)N=CN2c2ccc(Cl)cc2)cc1` (configuration not stated), the MIC with Bacillus subtilis [1] was 7.8 µg/mL (≈ 14.5 µM); with Staphylococcus aureus [2] it was 7.8 µg/mL (≈ 14.5 µM); against Staphylococcus aureus [3] it was 7.8 µg/mL (≈ 14.5 µM); in the assay on Micrococcus luteus [4], 3.9 µg/mL (≈ 7.26 µM); against Raoultella planticola, greater than 125 µg/mL; with Escherichia coli it was greater than 125 µg/mL. This compound also displayed a minimum inhibitory concentration (MIC) in the assay with Pseudomonas aeruginosa greater than 125 µg/mL. Also, the minimal bactericidal concentration (MBC) against Staphylococcus aureus [5] turned out to be 7.8 µg/mL (≈ 14.5 µM); with Bacillus subtilis [6], 7.8 µg/mL (≈ 14.5 µM); in the assay with Staphylococcus aureus [7], 31.2 µg/mL (≈ 58.1 µM); against Micrococcus luteus [8], 15.6 µg/mL (≈ 29 µM). The Ratio in the assay on Staphylococcus aureus [11] and in the assay with Micrococcus luteus [12] was 2 throughout. The 50% inhibitory concentration (IC50) in the assay with Staphylococcus aureus [13] was 3.9 µg/mL (≈ 7.26 µM); with Bacillus subtilis [14] it was 4.1 µg/mL (≈ 7.63 µM); with Staphylococcus aureus [9], 4.4 µg/mL (≈ 8.19 µM); in the assay on Micrococcus luteus [15], 1.8 µg/mL (≈ 3.35 µM). For the same compound, the outcome in the assay on Micrococcus luteus [16], with Micrococcus luteus [17] and in the assay on Micrococcus luteus [19] was Active. The result in the assay with Micrococcus luteus [18] was inactive.

Consider `Cc1ccc(-c2nn(-c3ccccc3)cc2C2c3c(n(C)c(=O)n(C)c3=O)N=CN2c2ccc(C)cc2)cc1` (configuration not stated), for which the minimum inhibitory concentration (MIC) is 7.8 µg/mL (≈ 15.1 µM) against Bacillus subtilis [1]; 7.8 µg/mL (≈ 15.1 µM) with Staphylococcus aureus [2]; 15.6 µg/mL (≈ 30.2 µM) against Staphylococcus aureus [3]; 7.8 µg/mL (≈ 15.1 µM) in the assay with Micrococcus luteus [4]; greater than 125 µg/mL with Raoultella planticola; greater than 125 µg/mL against Escherichia coli. This compound displayed a minimal inhibitory concentration (MIC) against Pseudomonas aeruginosa greater than 125 µg/mL. The minimum bactericidal concentration (MBC) worked out at 15.6 µg/mL (≈ 30.2 µM) against Staphylococcus aureus [5], 31.2 µg/mL (≈ 60.4 µM) against Bacillus subtilis [6], 15.6 µg/mL (≈ 30.2 µM) in the assay with Staphylococcus aureus [7] and 15.6 µg/mL (≈ 30.2 µM) in the assay on Micrococcus luteus [8]. Besides, the Ratio in the assay on Staphylococcus aureus [11], in the assay on Bacillus subtilis [20], with Staphylococcus aureus [21] and with Micrococcus luteus [12] was 2 throughout. For the same compound, the half-maximal inhibitory concentration (IC50) was found to be 4.2 µg/mL (≈ 8.13 µM) with Staphylococcus aureus [13], 3.6 µg/mL (≈ 6.97 µM) in the assay on Bacillus subtilis [14], 8.2 µg/mL (≈ 15.9 µM) with Staphylococcus aureus [9] and 3.3 µg/mL (≈ 6.39 µM) in the assay on Micrococcus luteus [15].

For `Cc1ccc(N2C=Nc3c(c(=O)n(C)c(=O)n3C)C2c2cn(-c3ccccc3)nc2-c2ccc([N+](=O)[O-])cc2)cc1` (configuration not stated), the minimal inhibitory concentration (MIC) in the assay on Bacillus subtilis [1] was 7.8 µg/mL (≈ 14.2 µM); against Staphylococcus aureus [2] it was 15.6 µg/mL (≈ 28.5 µM); in the assay on Staphylococcus aureus [3], 7.8 µg/mL (≈ 14.2 µM); with Micrococcus luteus [4] it was 15.6 µg/mL (≈ 28.5 µM); against Raoultella planticola, greater than 125 µg/mL; with Escherichia coli, greater than 125 µg/mL. This compound also had a minimal inhibitory concentration (MIC) against Pseudomonas aeruginosa greater than 125 µg/mL. In addition, the MBC worked out at 31.2 µg/mL (≈ 57 µM) against Staphylococcus aureus [5], 31.2 µg/mL (≈ 57 µM) in the assay on Bacillus subtilis [6], 15.6 µg/mL (≈ 28.5 µM) with Staphylococcus aureus [7] and 15.6 µg/mL (≈ 28.5 µM) with Micrococcus luteus [8]. The Ratio with Staphylococcus aureus [11], in the assay with Bacillus subtilis [20], in the assay on Staphylococcus aureus [21] and in the assay with Micrococcus luteus [12] was 2 in each case. The IC50 amounted to 12.6 µg/mL (≈ 23 µM) in the assay on Staphylococcus aureus [13], 18.3 µg/mL (≈ 33.4 µM) with Bacillus subtilis [14], 9.5 µg/mL (≈ 17.3 µM) in the assay with Staphylococcus aureus [9] and 10.1 µg/mL (≈ 18.4 µM) in the assay with Micrococcus luteus [15].

(Values after ChEMBL document CHEMBL3997821, “Design, synthesis and evaluation of novel pyrazolo-pyrimido[4,5-d]pyrimidine derivatives as potent antibacterial and biofilm inhibitors” (Bioorg Med Chem Lett, 2017).)
